Measured values reported in article PMC9633773, “Discovering cell-active BCL6 inhibitors: effectively combining biochemical HTS with multiple biophysical techniques, X-ray crystallography and cell-based assays” (Scientific Reports, 2022).
Ends that are not written are not given here.

Experiments:
BCL6 BTB domain [1] = biological target: T1, BCL6 BTB domain (Homo sapiens, UniProt P41182); assay: Fluorescence polarisation (FP) competition assay with BCOR-AF633 peptide; assay type: biochemical; conditions: for FP pIC50 Mean / IC50: repurchased hits; for IC50: up to 2 mM, n=1-6, read-out: FP IC50 Geometric Mean
T1 construct: the tag was removed by HRV-3C protease treatment, generating a simpler BCL6 5–129 product; Thioredoxin (N, cleaved yes); 6His (N, cleaved yes); made in house; host or cells: E. coli BL21-AI
Description: A modified BCOR peptide containing a C-terminal cysteine, labelled with Alexa Fluor (AF)633 C5 maleimide ([…]-Cys(AF633)-amide) was obtained from Cambridge Research Biochemical. For high throughput screening, the assay was miniaturized from 10 µL in Perkin Elmer 384-well black Proxi Plus plates to 4 µL in Labcyte 1536-well black low dead volume LP-0410 plates. Each complete reaction (a modified version from[9],[17]) contained 20 mM Hepes/NaOH pH 8.0, 150 mM NaCl, 0.5 mM tris(2-carboxyethyl)phosphine (TCEP), 0.05% (v/v) Tween 20, 10 nM BCOR-AF633 peptide, 3 µM BCL6 BTB and 1–2% (v/v) DMSO. At this protein concentration, we recorded a FP signal of 80 to 90 mP, corresponding to about 55% BCOR-AF633 bound to the BCL6 BTB domain. Compounds and control BCOR peptide were dispensed using an Echo550 acoustic dispenser (Beckman Coulter). Protein and peptide reagents were added using a Multidrop combi (Thermo Scientific) or a Tempest v2 (Formulatrix). After 2 h incubation at room temperature, plates were read on an Envision plate reader (Perkin Elmer) with excitation and emission wavelengths of 620 nm and 688 nm, respectively, or Pherastar FSX (BMG Labtech) with FP filters module 590-50/675-50/675-50. […] As a low signal control, we used either the maximal inhibition by BCOR in the HTS campaign, or the signal obtained from the probe in the absence of BCL6 for IC50 determination. IC50 values were calculated using a sigmoidal dose–response (variable slope) four- parameter equation. Beside the FP measurement, the total fluorescence intensity (TFI) was recorded to allow identification of interfering compounds (TFI > 110% control)[26].

BCL6 BTB [2] = biological target: T2, BCL6 BTB (Homo sapiens, UniProt P41182); assay: Thermal shift assay (TSA); assay type: binding; conditions: measured at 200 and 400 µM compound; binder if ≥ 1 °C
T2 construct: the tag was removed by HRV-3C protease treatment, generating a simpler BCL6 5–129 product; Thioredoxin (N, cleaved yes); 6His (N, cleaved yes); made in house; host or cells: E. coli BL21-AI
Description: Thermal shift assays were performed in 4titude FrameStar (Part No. 4ti-0385) 384 well skirted PCR plates: each well contained 10 µL of sodium acetate pH 6 buffer, 100 mM NaCl, 0.5 mM TCEP, 10 µM BCL6 BTB and 20 × Sypro Orange dye (Life Technologies), with or without inhibitor compound (100–400 µM) at 4% (v/v) final DMSO concentration. Plates were heated on a Biorad CFX384 real time thermocycler with a temperature gradient from 10 to 95 °C with a 0.5 °C increment, 0.15 s/cycle. Data were processed using Vortex (Dotmatics): a shift of the BCL6 BTB melting temperature (ΔTm) of + 1 °C or more was classed as indicative of BCL6 compound binding.

BCL6 BTB domain [3] = biological target: T1, BCL6 BTB domain; assay: Surface plasmon resonance (SPR); assay type: binding; conditions: immobilised BCL6 BTB, pH 6.0, 1:1 equilibrium model;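 note: Fail means no measurable KD from unsaturated curves poor sensorgrams or non-1:1 stoichiometry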
Description: All surface plasmon resonance (SPR) experiments were carried out on a Biacore T200 (Cytiva) and amine coupling chemistry was used to immobilise the protein on a research grade CM5 sensor chip. The running buffer consisted of 100 mM sodium acetate, 100 mM sodium chloride, and 1 mM TCEP at pH 6.0. The chip’s surface was activated for 10 min using a 1:1 mixture of 100 mM N-hydroxysuccinimide and 400 mM 1-ethyl-3-(3-dimethylaminopropyl)-carbodiimide. BCL6 BTB protein was injected for 20 min at a concentration of 100 µg/mL in a 10 mM sodium acetate buffer (pH 5.5). Finally, the surface was blocked via an injection of 1 M ethanolamine pH 8.5 for 7 min. The flow rate was maintained at 10 µL/min for all the above procedures and ~ 10,000 response units (RU) of BCL6 was immobilised on the chip. Flow cell one was left unmodified as the reference surface.
Following protein immobilisation, the running buffer was changed to 100 mM sodium acetate, 100 mM sodium chloride, 1 mM TCEP, 0.05% Tween20 (v/v), 5% DMSO at pH 6.0.
All compound handling was performed on an ECHO 550 acoustic liquid dispenser and compounds were added to 384-well polypropylene V-bottomed plates (Greiner), which became the sample plates for the SPR. […] The flow rate was 30 µL/min, the injection time for the samples was 60 s, and the dissociation time was 60 s. The surface was not regenerated between sample injections. KD values were calculated from the Langmuir plot under equilibrium conditions using the 1:1 binding model in the Biacore software version 2 (Cytiva).

BCL6 BTB [4] = biological target: T2, BCL6 BTB; assay: 19F ligand-observed NMR TFA-WVIP-NH2 peptide displacement assay; assay type: binding; conditions: for 19F LO-NMR, % peptide displaced: 200 µM compound, 200 µM TFA-WVIP-NH2, 6 µM BCL6 BTB, mean ± SD, n=2, hit if ≥ 30%; for Displacement of BCL6-bound TFA-WVIP-NH2 peptide (recovery of fluorine signal): Figure 3A, qualitative
Description: Each 180 µL ^19F-NMR peptide displacement assay contained 20 mM HEPES buffer pH 8, 100 mM NaCl, 0.5 mM TCEP, 10% D2O, 200 µM reporter TFA-WVIP-NH2, with or without 200 µM compound (4% D6-DMSO final) and 6 µM BCL6 BTB. Each 180 µL sample reaction was prepared in a 96-well plate and 170 µL transferred to a 3 mm NMR tube (Bruker, Part No. Z112272) using a Gilson liquid handler GX-281. NMR data were collected on a Bruker […] 500 MHz spectrometer equipped with a 5 mm BBFO probe. Data were acquired and processed using Bruker Topsin 2.1. The recovery of the reporter NMR signal upon addition of compound indicates competitive binding at the same site as the TFA-WVIP-NH2 tetrapeptide on the protein. We quantified the extent of recovery of NMR signal in % of reporter displacement[42]: \% displacement=Ireporter(+protein+compound)-Ireporter(+protein)/Ireporter(-protein)-Ireporter(+protein)X100\%

NMR kinetic solubility = assay type: physicochemical; conditions: 500 µM final compound concentration, 20 mM HEPES buffer pH 8, 2% or 5% DMSO
Description: Solubility measurements by quantitative ^1H-NMR or HPLC method were performed as described previously.

Trx-6His-BCL6 BTB = biological target: T3, Trx-6His-BCL6 BTB (Homo sapiens, UniProt P41182); assay: TR-FRET assay, Trx-6His-BCL6 BTB / BCOR-A633 peptide; assay type: biochemical; conditions: 1 or 10 nM Trx-6His-BCL6 BTB; read-out: TR-FRET IC50
T3 construct: made in house; host or cells: E. coli BL21-AI
Description: Each 15 µL TR-FRET reaction in 384-well black Proxiplate (Perkin Elmer) contained 1 or 10 nM Trx-6His-BCL6 BTB, 300 nM BCOR-A633 and 0.5 or 1 nM anti-6His-Terbium cryptate (Perkin Elmer), in the FP assay buffer (25 mM Hepes pH 8, 100 mM NaCl, 0.05% (v/v) Tween20, 0.5 mM TCEP), supplemented with 0.05% (w/v) bovine serum albumin. Test compounds in DMSO or DMSO alone were added to the wells using and Echo 550 acoustic dispenser to give the appropriate test concentration in 0.7% v/v DMSO final. After a 2 h incubation at room temperature, the plates were read on an Envision plate reader or a Pherastar FSX plate reader with 337 nm laser excitation, a first emission filter at 665 nm and a second emission filter at 615 or 620 nm. Data were normalised and IC50 determined as described above for the FP assay.

Row | Compound | FP pIC50 Mean (BCL6 BTB domain [1]) | IC50 (BCL6 BTB domain [1]) | TSA Tm (thermal shift) (BCL6 BTB [2]) | SPR KD (BCL6 BTB domain [3]) | 19F LO-NMR, % peptide displaced (BCL6 BTB [4]) | Sol. (NMR kinetic solubility) (NMR kinetic solubility) | Kd (BCL6 BTB domain [3]) | IC50 (Trx-6His-BCL6 BTB) | FP % inhibition at top concentration (BCL6 BTB domain [1]; printed beside IC50 >980 µM, 34% inhibition at 1 mM in text) | Displacement of BCL6-bound TFA-WVIP-NH2 peptide (recovery of fluorine signal) (BCL6 BTB [4]) | FP % inhibition (BCL6 BTB domain [1]; at 980 µM, n=4)
1 | COC(=O)C1=C(C)Nc2ncnn2C1c1ccc(C(=O)O)cc1 (stereo not shown) [Compound 6] | 3.15 | 703 µM | 0.5-1 ºC | – | 33.5 ± 1% | 538 µM | 659 µM | – | – | – | –
2 | Cc1cc(NCc2ccc3c(c2)OCO3)n2ncnc2n1 [Compound 9] | 3.32 | 477 µM | – | Fail | 49.5 ± 9% | 96 µM | – | – | – | – | –
3 | N#Cc1c(C(F)(F)F)cc(-c2cccs2)nc1SC(C(=O)O)c1ccccc1 (stereo not shown) [Compound 13] | 3.64 | 230 µM | 0-2.5 ºC | – | 102 ± 1% | 313 µM | 672 µM | – | – | – | –
4 | Cn1c(=O)n(C)c2cc(Nc3cc(N4CCOCC4)ncn3)ccc21 [Compound 18] | – | > 980 µM | 0-0.5 ºC | – | – | 55 µM | – | – | 34% | – | –
5 | COc1cccc(CN(C)c2nc3c(cnn3C(C)(C)C)c(=O)[nH]2)c1 [Compound 20] | 3.18 | 666 µM | 0 ºC | – | – | < 30 µM | – | – | – | – | –
6 | CC(C)CCn1c(SCC(=O)Nc2ccccc2F)nc2nccnc2c1=O [Compound 22] | 3.45 | 353 µM | 0.5-1 ºC | – | 23 ± 11% | 163 µM | 1190 µM | – | – | – | –
7 | EGLVATVKEAGRSIHEIPR [SMRT, reference compound] | – | – | – | – | – | – | – | – | – | able to displace | –
8 | WVIP peptide: hybrid BCOR/SMRT tetrapeptide with an Ac-WVIP-NH2 sequence [reference compound] | – | – | – | – | – | – | – | – | – | – | 16%

The remaining compounds from weak to strong by IC50 (BCL6 BTB domain [1]), led by results:

Row | FP pIC50 Mean (BCL6 BTB domain [1]) | IC50 (BCL6 BTB domain [1]) | TSA Tm (thermal shift) (BCL6 BTB [2]) | SPR KD (BCL6 BTB domain [3]) | 19F LO-NMR, % peptide displaced (BCL6 BTB [4]) | Sol. (NMR kinetic solubility) (NMR kinetic solubility) | Kd (BCL6 BTB domain [3]) | IC50 (Trx-6His-BCL6 BTB) | FP % inhibition at top concentration (BCL6 BTB domain [1]; printed beside IC50 >980 µM, 34% inhibition at 1 mM in text) | Displacement of BCL6-bound TFA-WVIP-NH2 peptide (recovery of fluorine signal) (BCL6 BTB [4]) | FP % inhibition (BCL6 BTB domain [1]; at 980 µM, n=4) | Compound
9 | 3.66 | 219 µM | 0.5-2 ºC | Fail | – | 70 µM | – | – | – | – | – | CCC1=C(C(=O)OC)C(c2ccccc2F)n2ncnc2N1 (stereo not shown) [Compound 8]
10 | 3.70 | 197 µM | 0-1 ºC | Fail | 61 ± 4% | 71 µM | – | – | – | – | – | Cc1ccccc1C1CC(c2ccccc2)Nc2ncnn21 (stereo not shown) [Compound 1]
11 | 3.71 | 194 µM | 0 ºC | – | – | < 30 µM | – | – | – | – | – | Fc1ccc(C2CC(c3ccccc3Cl)Nc3ncnn32)cc1 (stereo not shown) [Compound 5]
12 | 3.74 | 183 µM | 1-2.5 ºC | – | 78 ± 23% | 188 µM | 302 µM | – | – | – | – | O=C(NCc1ccccn1)c1csc(Nc2ccccc2Cl)n1 [Compound 14]
13 | 3.83 | 150 µM | – | – | 70 ± 1% | 83 µM | 553 µM | – | – | – | – | O=C(NCCCN1CCOCC1)c1csc(Nc2cccc3ccccc23)n1 [Compound 15]
14 | 3.92 | 120 µM | 1-2 ºC | – | 63 ± 7% | 72 µM | 81 µM | 70 µM | – | able to displace | – | N#Cc1c(NCc2ccccc2)ccnc1Cl [Compound 21]
15 | 3.99 | 102 µM | 0.5-2 ºC | Fail | 54 ± 1% | 64 µM | – | – | – | – | – | Fc1ccc(C2CC(c3cccc4ccccc34)n3ncnc3N2)cc1 (stereo not shown) [Compound 3]
16 | 4.02 | 95.5 µM | 0.5-3 ºC | – | 82.5 ± 5% | 476 µM | 168 µM | – | – | – | – | CCCC1=C(C(=O)OCC)C(c2cccnc2)n2ncnc2N1 (stereo not shown) [Compound 7]
17 | 4.15 | 70.2 µM | – | – | 100 ± 1% | 39 µM | 49 µM | 54 µM | – | – | – | Cn1c(=O)n(C)c2cc(Nc3cc(SCc4ccccc4)ncn3)ccc21 [Compound 17]
